One assay deals with T1, FLT3 ITD, F691L (Homo sapiens, UniProt P36888, F691L/ITD).
T1 sequence (P36888 564-993 F691L): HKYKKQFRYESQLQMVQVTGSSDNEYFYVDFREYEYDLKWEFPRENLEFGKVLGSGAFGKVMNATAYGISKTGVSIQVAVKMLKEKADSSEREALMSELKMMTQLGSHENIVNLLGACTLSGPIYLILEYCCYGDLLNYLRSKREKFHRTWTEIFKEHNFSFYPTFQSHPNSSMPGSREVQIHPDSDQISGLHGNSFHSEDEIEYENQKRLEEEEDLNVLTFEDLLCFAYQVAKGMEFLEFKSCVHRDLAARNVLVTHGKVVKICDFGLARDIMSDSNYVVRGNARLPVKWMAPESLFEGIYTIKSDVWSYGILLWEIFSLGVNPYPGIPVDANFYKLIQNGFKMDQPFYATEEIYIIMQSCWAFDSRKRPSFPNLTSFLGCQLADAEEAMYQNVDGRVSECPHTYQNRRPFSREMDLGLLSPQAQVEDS
Description: DiscoverX KINOMEscan competition binding assay, FLT3 ITD, F691L. From the text:
(§1) Kinase binding data were obtained for various exemplary compounds prepared according to Examples 1-25 using the DiscoverX KINOMEscan® active site-directed competition binding site-directed assay protocol described below. […] As a result, the data report thermodynamic interaction affinities (Kd values), rather than IC50 values that are dependent on ATP concentrations. The assay uses a DNA-tagged version of the protein kinase, and an immobilized ligand bound to a solid support. Compounds that directly or indirectly prevent kinase binding to the immobilized ligand reduce the amount of kinase captured on the solid support, which is detected using an ultra-sensitive qPCR method. Affinity constants reported from the assay have been reported to be independent of the immobilized ligand used that is coupled to the solid support (See supplemental information in Fabian, M. A. et. al., (2005) Nat. Biotechnol. 23, 329-336; Wodicka, L. M. et. al., (2010) Chem. Biol. 17, 1241-1249.)
(§2) Kinase-tagged T7 phage strains were prepared in an E. coli host derived from the BL21 strain. E. coli were grown to log-phase and infected with T7 phage and incubated with shaking at 32° C. until lysis. The lysates were centrifuged and filtered to remove cell debris. The remaining kinases were produced in HEK-293 cells and subsequently tagged with DNA for qPCR detection. […] The liganded beads were blocked with excess biotin and washed with blocking buffer (SeaBlock (Pierce), 1% BSA, 0.05% Tween 20, 1 mM DTT) to remove unbound ligand and to reduce non-specific binding. […] Test compounds were prepared as 111× stocks in 100% DMSO. Kds were determined using an 11-point 3-fold compound dilution series with three DMSO control points. […] The compounds were then diluted directly into the assays such that the final concentration of DMSO was 0.9%. All reactions were performed in polypropylene 384-well plates. Each was a final volume of 0.02 mL. […] The kinase concentration in the eluates was measured by qPCR.
(§3) Binding constants (Kds) were calculated with a standard dose-response curve using the Hill equation. […]

A further assay concerns the target T2, FLT3 (Homo sapiens, UniProt P36888).
T2 construct: using full-length kinases in the presence of cellular concentrations of ATP in live, uncompromised cells; assay by Reaction Biology; host or cells: HEK-293 (ATCC), transient transfection
T2 sequence (P36888 27-993): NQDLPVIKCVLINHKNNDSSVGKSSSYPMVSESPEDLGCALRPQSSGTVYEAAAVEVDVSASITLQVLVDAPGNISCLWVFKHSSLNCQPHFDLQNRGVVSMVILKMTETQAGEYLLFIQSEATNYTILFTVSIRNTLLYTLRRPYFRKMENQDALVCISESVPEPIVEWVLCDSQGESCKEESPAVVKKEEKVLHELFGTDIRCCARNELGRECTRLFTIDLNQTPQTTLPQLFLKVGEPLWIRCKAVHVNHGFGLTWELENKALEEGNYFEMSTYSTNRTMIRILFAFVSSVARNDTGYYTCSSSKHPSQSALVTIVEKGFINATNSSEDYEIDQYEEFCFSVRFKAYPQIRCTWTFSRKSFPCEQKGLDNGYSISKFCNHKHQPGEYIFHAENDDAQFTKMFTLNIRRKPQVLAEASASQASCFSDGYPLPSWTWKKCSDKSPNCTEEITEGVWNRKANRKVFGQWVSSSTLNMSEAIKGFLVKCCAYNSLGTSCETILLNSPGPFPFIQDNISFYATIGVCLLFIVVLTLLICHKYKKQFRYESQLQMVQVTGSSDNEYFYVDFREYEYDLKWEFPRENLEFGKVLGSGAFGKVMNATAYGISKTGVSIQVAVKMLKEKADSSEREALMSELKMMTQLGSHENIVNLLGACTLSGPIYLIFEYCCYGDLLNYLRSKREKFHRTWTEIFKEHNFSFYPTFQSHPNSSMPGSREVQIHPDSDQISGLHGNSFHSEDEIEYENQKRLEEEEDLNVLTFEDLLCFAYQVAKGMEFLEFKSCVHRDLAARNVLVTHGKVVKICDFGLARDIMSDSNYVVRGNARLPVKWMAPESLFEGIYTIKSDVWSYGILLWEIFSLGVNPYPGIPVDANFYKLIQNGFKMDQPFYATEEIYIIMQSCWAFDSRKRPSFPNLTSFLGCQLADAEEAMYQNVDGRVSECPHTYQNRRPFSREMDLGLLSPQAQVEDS
Description: DiscoverX KINOMEscan competition binding assay, FLT3.
Source text: as §1, §2, §3

Read-outs that look alike come from different tables or passages of the source.

On to `COc1cc2ncc(-c3cccc(N[C@@H]4CCNC4)n3)n2nc1C1CC1` [Compound 97, (R)-6-(6-cyclopropyl-7-methoxyimidazo[1,2-b]pyridazin-3-yl)-N-(pyrrolidin-3-yl)pyridin-2-amine], for which the equilibrium dissociation constant (Kd) at FLT3 ITD, F691L (read-out: FLT3 ITD, F691L Kd) stood at 0.19 nM; at FLT3 it was 0.19 nM.
Regarding `COc1cc2ncc(-c3cccc(N[C@H]4CNCC[C@@H]4F)n3)n2nc1C1CC1` [Compound 102, 6-(6-cyclopropyl-7-methoxyimidazo[1,2-b]pyridazin-3-yl)-N-((3S,4S)-4-fluoropiperidin-3-yl)pyridin-2-amine], the dissociation constant (Kd) at FLT3 ITD, F691L (read-out: FLT3 ITD, F691L Kd) was determined as 0.14 nM; on FLT3 it was 0.13 nM.
For the compound `COc1cc2ncc(-c3cccc(N[C@H]4CNC[C@@H]4F)n3)n2nc1C1CC1` [Compound 96, 6-(6-cyclopropyl-7-methoxyimidazo[1,2-b]pyridazin-3-yl)-N-((3S,4S)-4-fluoropyrrolidin-3-yl)pyridin-2-amine], the dissociation constant Kd was determined as 0.37 nM on FLT3 ITD, F691L and 0.31 nM at FLT3.

The values above are taken from US12534469B2 (CHILDREN'S HOSPITAL MEDICAL CENTER, priority 2020, dated 2026).
